# Key:
# [1] = tested on: F. nucleatum (Fn) biofilm; experiment: Fn biofilm formation induced by Fn AI-2, crystal violet staining; format: cell-based, F. nucleatum (ATCC 25586); conditions: Fn + Fn AI-2 10% (v/v), 48-72 h, Fn/AI-2 control 1.5, Fn 0.46
# Method: To test biofilm formation by Fn, a Fn culture broth (2 ml; a negative control group, the number of bacteria: 2×10^7/ml), a mixture of Fn culture broth (2 ml) and F. nucleatum AI-2 (purified from F. nucleatum secretary material of F. nucleatum culture broth using a C18 Sep-Pak reverse-phase column (Waters Co., Milford, Mass.); hereinafter, referred to as ‘Fn AI-2’; 10% (v/v) with respect to the total volume of the mixture with Fn culture broth), or a mixture of Fn culture broth (2 ml) and Fn AI-2 (10% (v/v) with respect to the total volume of the mixture with Fn culture broth) and each of QSI candidates was added to a 24-well plate with a glass slip (round, 12 mm radius), and cultured under anaerobic conditions for 48-72 hours. As the QSI candidates, sugars (D-rib, D-gal, D-Glu, D-Man, or D-ara) were used in an amount of 2 mM, and the furanone compound [(5Z)-4-bromo-5-(bromomethylene)-2(5H)-furanone] was used in an amount of 2 μM.
# (§1) Biofilms formed on the cover slips were stained with 10% crystal violet [Tris(4-(dimethylamino)phenyl)methylium chloride] for 10 minutes, washed three times with PBS, and destained with 1 ml of acetone-alcohol (20:80, vol/vol). The optical density at 590 nm of the destaining solution containing crystal violet was measured using a microplate reader (a Wallac Victor3 microtiter, PerkinElmer Life Sciences, Waltham, Mass.). The smaller optical density (OD590) measured at 590 nm represents more inhibition of biofilm formation, that is, higher quorum sensing inhibitory effect of the used QSI candidate.
# [2] = tested on: P. gingivalis (Pg) biofilm; experiment: Pg biofilm formation induced by Fn AI-2, crystal violet staining; format: cell-based, P. gingivalis (ATCC 33277); conditions: Pg + Fn AI-2 10% (v/v), Fur 2 μM, 48-72 h; Pg/AI-2 control 2.00, Pg 0.66
# Method: To test biofilm formation by Pg, a test was performed in the same manner as in Example 3. That is, a Pg culture broth (2 ml; negative control group, the number of bacteria: 4×10^8/ml), a mixture of Pg culture broth (2 ml) and Fn AI-2 (10% (v/v) with respect to the total volume of the mixture with Pg culture broth), or a mixture of Pg culture broth (2 ml) and Fn AI-2 (10% (v/v) with respect to the total volume of the mixture with Fn culture broth) and D-gal (2 mM) was added to a 24-well plate with a glass slip (round, 12 mm radius), and cultured under anaerobic conditions for 48˜72 hours. For comparison, 2 μM of the furanone compound [(5Z)-4-bromo-5-(bromomethylene)-2(5H)-furanone] was used instead of D-gal (2 mM) to perform the same test.
# as §1
# [3] = tested on: T. forsythia (Tf) biofilm; experiment: Tf biofilm formation induced by Fn AI-2, crystal violet staining; format: cell-based, T. forsythia (ATCC 43037); conditions: Tf + Fn AI-2 10% (v/v), Fur 2 μM, 48-72 h; Tf/AI-2 control 0.48, Tf 0.32
# Method: To test biofilm formation by Tf, a test was performed in the same manner as in Example 3. That is, a Tf culture broth (2 ml; a negative control group, the number of bacteria: 2×10^8/ml), a mixture of Tf culture broth (2 ml) and Fn AI-2 (10% (v/v) with respect to the total volume of the mixture with Tf culture broth), or a mixture of Tf culture broth (2 ml) and Fn AI-2 (10% (v/v) with respect to the total volume of the mixture with Tf culture broth) and D-gal (2 mM) was added to a 24-well plate with a glass slip (round, 12 mm radius), and cultured under anaerobic conditions for 48-72 hours. For comparison, 2 mM of D-rib or 2 μM of the furanone compound [(5Z)-4-bromo-5-(bromomethylene)-2(5H)-furanone] was used instead of D-gal to perform the same test.
# as §1
# [4] = tested on: P. gingivalis (Pg) biofilm; experiment: Pg biofilm formation induced by Fn secretory material, transwell, crystal violet; format: cell-based; conditions: Fn upper / Pg lower chamber, Fur 2 μM, 48-72 h, Fn/Pg control 0.57, Pg alone 0.30
# Method: (§2) In order to examine efficacies of quorum sensing inhibitor (QSI) candidates on biofilm formation of periodontopathogenic bacteria which is induced by a secretory material of F. nucleatum (Fn), a test was performed using a transwell system. AI-2 naturally secreted by Fn is contained in the secretory material of Fn. Therefore, in the test using the transwell system, Fn AI-2 was not directly added to bacteria, but Fn was put in an upper chamber and Pg or Tf was put in a lower chamber. Biofilms cultured and formed in the presence or absence of QSI candidates were stained with crystal violet, followed by analysis. These conditions are to evaluate whether Pg or Tf biofilm formation is influenced by not a purified AI-2 but an AI-2-containing secretory material naturally secreted by Fn, and whether QSI candidates such as D-gal is able to inhibit the biofilm formation if the biofilm is then formed.
# (§3) More specifically, the transwell system (24-well) has an upper chamber and a lower chamber which are separated from each other by a membrane of 0.4 μm. 500 μl of F. nucelatum (Fn) culture broth (the number of bacteria: 2×10^7 CFU/ml) was cultured in the upper chamber. A glass slip was placed in the lower chamber, and then the same number of P. gingivalis(Pg) or T. forsythia(Tf) was inoculated in 1 ml of medium and cultured for 48-72 hours. The same QSI candidates were added to the upper and lower chambers. As the QSI candidates, 2 mM of sugar (D-rib or D-gal) was used and 2 μM of the furanone compound [(5Z)-4-bromo-5-(bromomethylene)-2(5H)-furanone] was used. In order to examine whether biofilm formation of the bacteria in the lower chamber is influenced by Fn secretory material and QSI candidates, the biofilms formed on the glass slip were stained with crystal violet, and then quantified (see Examples 3 to 5).
# [5] = tested on: T. forsythia (Tf) biofilm; experiment: Tf biofilm formation induced by Fn secretory material, transwell, crystal violet; format: cell-based; conditions: Fn upper / Tf lower chamber, Fur 2 μM, 48-72 h, Fn/Tf control 0.55, Tf alone 0.17
# Method: as §2, §3
# [6] = tested on: S. mutans (Sm) biofilm; experiment: S. mutans biofilm formation, crystal violet staining; format: cell-based, Streptococcus mutans (ATCC 25175)
# Method: (§4) 2 mL (2×10^7/ml) of the culture broth of a representative cariogenic bacterium S. mutans (Sm) and 2 mL (2×10^7/ml) of the culture broth of one of normal oral flora, S. oxalis (SO) were added to a saliva-coated glass slip (round, 12 mm radius), respectively and cultured with 0 mM or 2 mM of D-galactose to form biofilms. The formed biofilms were stained with crystal violet in the same manner as in Examples 3-6 to test biofilm formation according to the presence of D-galactose. Further, the biofilms were stained with fluorescent materials using the live/dead-BacLight viability kit (Invitrogen, Grand Island, N.Y., USA), followed by analysis. For comparison, 2 μM of the furanone compound was used instead of D-galactose to perform the same test.
# [7] = tested on: S. oxalis (So) biofilm; experiment: S. oxalis biofilm formation, crystal violet staining; format: cell-based, Streptococcus oxalis (ATCC 9811); conditions: So on saliva-coated glass slip, Fur 2 uM; So control 0.59
# Method: as §4, with “The formed biofilms were stained with crystal violet in the same manner as in Examples 3-6 to test biofilm formation according to the presence of D-galactose.” left out
# [8] = sugar 2 mM, smaller OD = more inhibition of biofilm
smiles,measurement,setting,value
"O=C[C@@H](O)[C@H](O)[C@H](O)CO [D-ara, D-arabinose]",OD590 nm,[1]; [8],1.37
"O=C[C@H](O)[C@@H](O)[C@H](O)[C@H](O)CO [D-glu, D-glucose]",OD590 nm,[1]; [8],1.15
"O=C[C@@H](O)[C@@H](O)[C@H](O)[C@H](O)CO [D-man, D-mannose]",OD590 nm,[1]; [8],1.16
"O=C1C=C(Br)/C(=C/Br)O1 [Fur, (5Z)-4-bromo-5-(bromomethylene)-2(5H)-furanone, reference compound]",OD590 nm,[1]; Fur 2 μM,0.49
same,OD590 nm,[2],0.98
same,OD590 nm,[3],0.35
same,OD590 nm,[4],0.30
same,OD590,[5],0.39
same,OD590 nm,"[6]; Sm on saliva-coated glass slip, Fur 2 μM, Sm control 0.48",0.51
same,"inhibitory effect on Sm biofilm formation, in words","[6]; crystal violet, D-gal 2 mM, furanone compound 2 μM",hardly exhibited the inhibitory effect
same,OD590,[7],0.64

# From US20190224222A1, “METHOD OF INHIBITING QUORUM SENSING USING D-GALACTOSE” (Seoul National University R&DB Foundation, priority 2014, published 2019)
